{
  "source": "patent US6846670B2",
  "about": "“Genetically engineered herpes virus for the treatment of cardiovascular disease” (priority 2000, dated 2005)",
  "key": {"[1]": {"test_system": "human umbilical vein endothelial cells (HUVECs)", "assay": "MTT assay of HUVEC viability following viral exposure", "format": "cell-based", "procedure": "To determine the appropriate dose for vascular gene transfer, human umbilical vein endothelial cells (HUVECs) were contacted with graded concentrations of HSV-1 for 120 min and viability was assessed using a standard 72 hr MTT assay, as described below.\nHuman umbilical vein endothelial cells (HUVECs; BioWhittaker/Clonetics) were suspended in complete medium EBM-2 (BioWhittaker #CC3 156) and singlequots of EGM-2 (#CC4176) and grown to 100% confluence in P75 flasks in a 37° C. incubator with humidified 5% CO2 For the passage of cells, all reagent pack contents (HBSS, Trypsin/EDTA, TNS; BioWhittaker CC-5034) were thawed in a 37° C. water bath and exhausted media was removed and discarded. HUVECs were washed with enough HBSS to cover them, trypsin/EDTA was added, and flasks were gently agitated under an inverted microscope. […]\nA modified colorimetric assay based on the selective ability of living cells to reduce the yellow salt MTT (3-[4,5-dimethylthiozol-2-yl]-2,5 diphenyl tetrazolium bromide; Sigma Chemical Co.) to formazan was used to quantitate HUVEC viability following viral exposure. […] The formazan crystals were then dissolved in 0.1 ml DMSO (Sigma) and the absorbance measured at 515 nm using a microplate spectrophotometer (SpectraMax 340 004) interfaced with a personal computer (Apple Macintosh). This process was repeated after 72 hours and relative cell survival was calculated. […]"}, "[2]": {"test_system": "umbilical artery smooth muscle cells (UASMCs)", "assay": "MTT assay of UASMC viability following viral exposure and Acyclovir rescue", "format": "cell-based, human", "conditions": "UASMCs infected with R849 MOI=25, even with 10 μg/ml Acyclovir", "description": "A modified colorimetric assay based on the selective ability of living cells to reduce the yellow salt MTT (3-[4,5-dimethylthiozol-2-yl]-2,5 diphenyl tetrazolium bromide; Sigma Chemical Co.) to formazan was used to quantitate HUVEC and UASMC viability following viral exposure and rescue with Acyclovir (Abbott Laboratories)."}, "[3]": {"test_system": "established HSV-1 infection", "assay": "Eradication of established R849 infection with Acyclovir in rabbit vein patch", "format": "in vivo", "description": "(§1) Its mechanism of action is believed to include penetration intracellularly, conversion initially to the monophosphate by viral thymidine kinases, then to the diphosphate by cellular guanylate kinase and, finally, to the triphosphate by various other cellular enzymes. Fully active Acyclovir triphosphate competes with the natural substrate, deoxyguanosine triphosphate, for a position in the DNA chain of the herpes virus. Once incorporated, it terminates DNA synthesis via (1) competitive inhibition of viral DNA polymerase, (2) incorporation into, and termination of, the growing viral DNA chain, and (3) inactivation of the viral DNA polymerase. Uninfected cells show only minimal uptake and phosphorylation of Acyclovir. The HSV strains used in this example retain tk activity and are thus highly susceptible to neutralization by Acyclovir. To test whether an established HSV-1 infection could be eradicated after completion of the desired therapeutic effect (of the recombinant HSV) in vivo, a rabbit model was used. […] Baseline serum Acyclovir, electrolyte, blood urea nitrogen, and creatinine levels were measured before initiation of Acyclovir treatment, on days 2, 5, and 10 after initiation of treatment, and at sacrifice. […]"}, "[4]": {"assay": "Serum Acyclovir level and serum chemistry during Acyclovir therapy", "format": "in vivo, rabbit", "description": "as §1"}},
  "data": [
    {"compound": "Nc1nc2c(ncn2COCCO)c(=O)[nH]1", "note": "[Acyclovir, 12-amino-1,9-dihydro-9-[(2-hydroxy-ethoxy)methyl]-6H-purin-6-one]", "values": [
      {"measurement": "relative 72 hr cell survival with Acyclovir", "setting": "[1]; HUVECs infected with R849 MOI=25, Acyclovir 0.25 μg/ml", "result": "45±5", "unit": "%"},
      {"measurement": "relative 72 hr cell survival with Acyclovir", "setting": "[1]; HUVECs infected with R849 MOI=25, Acyclovir 0.5 μg/ml", "result": "85±9", "unit": "%"},
      {"measurement": "rescue of infected cells with Acyclovir", "setting": "[2]", "result": "could not be rescued"},
      {"measurement": "cells with β-galactosidase activity after Acyclovir treatment", "setting": "[3]; R849 4×10^8 pfu/ml vein patch, Acyclovir 75 mg/kg iv five days from week 1 plus oral, harvest at four weeks", "result": "< 1", "unit": "%"},
      {"measurement": "patency of treated vein patches after eradication of R849 infection", "setting": "[3]; four weeks", "result": "remained widely patent"},
      {"measurement": "serum levels of Acyclovir", "setting": "[4]; during Acyclovir therapy, rabbits", "result": "9 ± 4", "unit": "µg/mL"},
      {"measurement": "systemic toxicity by serum electrolytes, blood urea nitrogen and creatinine", "setting": "[4]; throughout the study, rabbits with R849-infected patches on Acyclovir", "result": "no significant systemic toxicity"}
    ]}
  ]
}
